# Results reported in US12479847B2 (DANA-FARBER CANCER INSTITUTE, INC., priority 2019, dated 2025).
# Columns and labels:
# Assay in all cases: KINOMEscan (ScanMAX) kinase profiling
# Assay type in all cases: binding
# panel of 468 kinases [1] = molecular target: T1, panel of 468 kinases (Homo sapiens, UniProt P29317); conditions: EPHA2; 1 μM; read-out: % control
# T1 construct: purchased KINOMEscan (ScanMAX) service
# panel of 468 kinases [2] = molecular target: T2, panel of 468 kinases (Homo sapiens, UniProt Q8N752); conditions: CSNK1A1L; 1 μM; read-out: % control
# T2 construct: purchased KINOMEscan (ScanMAX) service
# T2 sequence (Q8N752 1-337): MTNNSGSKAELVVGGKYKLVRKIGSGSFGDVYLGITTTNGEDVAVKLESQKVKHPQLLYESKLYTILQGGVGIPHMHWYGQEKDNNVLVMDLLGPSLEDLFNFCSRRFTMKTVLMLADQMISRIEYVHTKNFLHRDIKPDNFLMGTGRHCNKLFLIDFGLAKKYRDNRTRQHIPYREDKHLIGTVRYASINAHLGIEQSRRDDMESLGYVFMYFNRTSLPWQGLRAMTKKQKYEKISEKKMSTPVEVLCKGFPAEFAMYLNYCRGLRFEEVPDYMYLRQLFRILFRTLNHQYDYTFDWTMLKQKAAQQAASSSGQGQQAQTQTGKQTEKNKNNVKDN
# panel of 468 kinases [3] = molecular target: T3, panel of 468 kinases (Homo sapiens, UniProt P42680); conditions: TEC; 1 μM; read-out: % control
# T3 construct: purchased KINOMEscan (ScanMAX) service
# T3 sequence (P42680 1-631): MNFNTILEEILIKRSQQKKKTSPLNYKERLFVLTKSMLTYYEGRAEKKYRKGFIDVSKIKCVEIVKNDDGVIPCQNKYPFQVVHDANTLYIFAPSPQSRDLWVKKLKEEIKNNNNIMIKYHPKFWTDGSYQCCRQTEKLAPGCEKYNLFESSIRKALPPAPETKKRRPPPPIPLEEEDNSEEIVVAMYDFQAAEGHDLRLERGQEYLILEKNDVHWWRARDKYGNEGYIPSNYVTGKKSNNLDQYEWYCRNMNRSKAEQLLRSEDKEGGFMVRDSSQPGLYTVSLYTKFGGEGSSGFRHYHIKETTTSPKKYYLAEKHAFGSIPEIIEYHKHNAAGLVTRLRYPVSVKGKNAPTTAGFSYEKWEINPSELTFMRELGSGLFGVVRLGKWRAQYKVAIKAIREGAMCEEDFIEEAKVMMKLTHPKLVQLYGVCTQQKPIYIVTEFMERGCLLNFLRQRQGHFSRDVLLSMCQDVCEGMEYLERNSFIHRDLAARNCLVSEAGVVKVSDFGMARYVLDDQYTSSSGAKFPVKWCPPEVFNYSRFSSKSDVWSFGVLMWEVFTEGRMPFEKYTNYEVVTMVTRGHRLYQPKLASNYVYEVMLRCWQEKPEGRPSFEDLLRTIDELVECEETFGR
# panel of 468 kinases [4] = molecular target: T4, panel of 468 kinases (Homo sapiens, UniProt Q9Y616); conditions: IRAK3; 1 μM; read-out: % control
# T4 construct: purchased KINOMEscan (ScanMAX) service
# T4 sequence (Q9Y616 1-596): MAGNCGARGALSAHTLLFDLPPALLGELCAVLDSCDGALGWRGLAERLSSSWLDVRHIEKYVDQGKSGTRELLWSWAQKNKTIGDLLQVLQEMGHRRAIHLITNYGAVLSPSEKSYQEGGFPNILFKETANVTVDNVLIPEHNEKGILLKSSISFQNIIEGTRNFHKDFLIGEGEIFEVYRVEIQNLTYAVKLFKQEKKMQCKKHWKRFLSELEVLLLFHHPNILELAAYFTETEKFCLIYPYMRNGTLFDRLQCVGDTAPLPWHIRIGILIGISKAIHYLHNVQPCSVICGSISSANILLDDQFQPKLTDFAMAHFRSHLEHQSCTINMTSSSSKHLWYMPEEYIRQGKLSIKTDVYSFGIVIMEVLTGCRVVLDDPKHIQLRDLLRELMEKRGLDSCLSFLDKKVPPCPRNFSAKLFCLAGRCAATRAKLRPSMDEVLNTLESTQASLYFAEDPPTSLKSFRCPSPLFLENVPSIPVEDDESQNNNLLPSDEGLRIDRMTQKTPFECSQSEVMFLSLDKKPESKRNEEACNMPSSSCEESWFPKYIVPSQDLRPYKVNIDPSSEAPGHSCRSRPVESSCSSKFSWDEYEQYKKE
# panel of 468 kinases [5] = molecular target: T5, panel of 468 kinases (Homo sapiens, UniProt P04049); conditions: RAF1; 1 μM; read-out: % control
# T5 construct: purchased KINOMEscan (ScanMAX) service
# panel of 468 kinases [6] = molecular target: T6, panel of 468 kinases (Homo sapiens, UniProt Q07912); conditions: TNK2; 1 μM; read-out: % control
# T6 construct: purchased KINOMEscan (ScanMAX) service
# panel of 468 kinases [7] = molecular target: T7, panel of 468 kinases (Homo sapiens, UniProt Q15569); conditions: TESK1; 1 μM; read-out: % control
# T7 construct: purchased KINOMEscan (ScanMAX) service
# panel of 468 kinases [8] = molecular target: T8, panel of 468 kinases (Homo sapiens, UniProt P35590); conditions: TIE1; 1 μM; read-out: % control
# T8 construct: purchased KINOMEscan (ScanMAX) service
# T8 sequence (P35590 22-1138): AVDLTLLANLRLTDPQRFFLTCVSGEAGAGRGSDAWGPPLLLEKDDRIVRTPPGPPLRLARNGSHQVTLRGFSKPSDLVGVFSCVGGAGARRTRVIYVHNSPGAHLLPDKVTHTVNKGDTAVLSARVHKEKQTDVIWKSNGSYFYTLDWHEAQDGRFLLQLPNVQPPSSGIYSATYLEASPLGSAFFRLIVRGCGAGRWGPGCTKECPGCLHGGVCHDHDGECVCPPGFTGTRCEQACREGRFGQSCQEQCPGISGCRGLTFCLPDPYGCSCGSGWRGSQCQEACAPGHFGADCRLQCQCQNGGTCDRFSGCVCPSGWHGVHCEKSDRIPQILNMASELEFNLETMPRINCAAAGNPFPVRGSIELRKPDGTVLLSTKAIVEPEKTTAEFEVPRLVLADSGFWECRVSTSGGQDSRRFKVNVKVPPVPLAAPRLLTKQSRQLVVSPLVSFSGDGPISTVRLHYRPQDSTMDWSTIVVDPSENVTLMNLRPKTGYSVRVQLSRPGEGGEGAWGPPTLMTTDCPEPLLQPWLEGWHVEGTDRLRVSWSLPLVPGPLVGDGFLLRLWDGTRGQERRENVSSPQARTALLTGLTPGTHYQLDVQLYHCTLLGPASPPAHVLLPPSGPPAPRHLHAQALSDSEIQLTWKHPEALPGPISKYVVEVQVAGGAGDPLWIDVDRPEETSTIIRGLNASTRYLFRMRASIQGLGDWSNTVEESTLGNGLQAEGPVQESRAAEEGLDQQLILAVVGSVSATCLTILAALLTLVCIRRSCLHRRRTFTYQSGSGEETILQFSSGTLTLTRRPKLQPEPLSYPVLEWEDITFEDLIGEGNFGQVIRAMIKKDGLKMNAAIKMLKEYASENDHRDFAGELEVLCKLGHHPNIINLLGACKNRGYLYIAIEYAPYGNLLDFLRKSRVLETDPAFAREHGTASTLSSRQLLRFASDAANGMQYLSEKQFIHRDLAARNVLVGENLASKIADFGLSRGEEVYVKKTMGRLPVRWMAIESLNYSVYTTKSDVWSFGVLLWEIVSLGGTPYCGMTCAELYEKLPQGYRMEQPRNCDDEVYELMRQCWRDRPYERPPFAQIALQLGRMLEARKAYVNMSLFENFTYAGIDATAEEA
# T7 sequence (Q15569 whole entry): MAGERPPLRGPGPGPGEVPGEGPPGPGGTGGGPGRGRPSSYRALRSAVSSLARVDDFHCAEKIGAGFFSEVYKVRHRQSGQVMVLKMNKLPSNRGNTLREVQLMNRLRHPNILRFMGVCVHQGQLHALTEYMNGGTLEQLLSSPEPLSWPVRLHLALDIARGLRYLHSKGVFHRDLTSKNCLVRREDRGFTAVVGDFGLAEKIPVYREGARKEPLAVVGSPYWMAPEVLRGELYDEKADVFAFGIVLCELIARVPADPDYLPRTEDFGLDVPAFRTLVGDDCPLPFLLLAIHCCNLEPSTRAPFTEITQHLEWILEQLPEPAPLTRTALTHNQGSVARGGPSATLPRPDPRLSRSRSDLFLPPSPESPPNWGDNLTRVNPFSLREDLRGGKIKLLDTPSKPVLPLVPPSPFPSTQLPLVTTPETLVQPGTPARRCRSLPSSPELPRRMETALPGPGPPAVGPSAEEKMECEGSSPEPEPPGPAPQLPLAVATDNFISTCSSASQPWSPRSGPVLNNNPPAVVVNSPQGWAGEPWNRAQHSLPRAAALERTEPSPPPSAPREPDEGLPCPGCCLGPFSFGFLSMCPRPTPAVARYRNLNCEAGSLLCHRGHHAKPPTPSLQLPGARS
# T6 sequence (Q07912 whole entry): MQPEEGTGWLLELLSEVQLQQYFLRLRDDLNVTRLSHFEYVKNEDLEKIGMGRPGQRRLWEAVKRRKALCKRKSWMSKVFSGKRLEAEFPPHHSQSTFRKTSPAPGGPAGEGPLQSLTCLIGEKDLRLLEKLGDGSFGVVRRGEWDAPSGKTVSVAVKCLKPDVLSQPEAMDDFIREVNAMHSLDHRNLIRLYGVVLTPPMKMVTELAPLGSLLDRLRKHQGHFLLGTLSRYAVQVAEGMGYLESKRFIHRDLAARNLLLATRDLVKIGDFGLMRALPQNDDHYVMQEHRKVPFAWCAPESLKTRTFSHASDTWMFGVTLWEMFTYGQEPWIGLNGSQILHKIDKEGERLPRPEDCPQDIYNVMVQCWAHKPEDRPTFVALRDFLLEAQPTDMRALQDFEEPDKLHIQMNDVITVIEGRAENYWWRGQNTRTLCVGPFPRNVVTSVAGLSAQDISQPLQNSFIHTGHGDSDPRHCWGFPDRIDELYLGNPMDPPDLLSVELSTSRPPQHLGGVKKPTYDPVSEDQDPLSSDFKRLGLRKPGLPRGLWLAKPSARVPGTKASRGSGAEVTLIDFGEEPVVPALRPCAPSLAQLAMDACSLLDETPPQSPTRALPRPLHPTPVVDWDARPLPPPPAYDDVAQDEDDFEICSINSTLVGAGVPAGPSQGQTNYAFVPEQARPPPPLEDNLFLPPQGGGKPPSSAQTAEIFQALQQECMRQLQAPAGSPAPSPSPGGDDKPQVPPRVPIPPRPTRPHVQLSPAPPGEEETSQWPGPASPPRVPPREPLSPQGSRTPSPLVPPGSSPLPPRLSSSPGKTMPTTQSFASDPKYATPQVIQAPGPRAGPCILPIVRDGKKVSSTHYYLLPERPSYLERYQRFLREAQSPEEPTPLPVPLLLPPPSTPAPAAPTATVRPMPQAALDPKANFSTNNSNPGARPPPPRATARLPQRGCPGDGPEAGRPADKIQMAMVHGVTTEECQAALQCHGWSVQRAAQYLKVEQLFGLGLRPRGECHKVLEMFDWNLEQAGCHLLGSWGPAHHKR
# T5 sequence (P04049 whole entry): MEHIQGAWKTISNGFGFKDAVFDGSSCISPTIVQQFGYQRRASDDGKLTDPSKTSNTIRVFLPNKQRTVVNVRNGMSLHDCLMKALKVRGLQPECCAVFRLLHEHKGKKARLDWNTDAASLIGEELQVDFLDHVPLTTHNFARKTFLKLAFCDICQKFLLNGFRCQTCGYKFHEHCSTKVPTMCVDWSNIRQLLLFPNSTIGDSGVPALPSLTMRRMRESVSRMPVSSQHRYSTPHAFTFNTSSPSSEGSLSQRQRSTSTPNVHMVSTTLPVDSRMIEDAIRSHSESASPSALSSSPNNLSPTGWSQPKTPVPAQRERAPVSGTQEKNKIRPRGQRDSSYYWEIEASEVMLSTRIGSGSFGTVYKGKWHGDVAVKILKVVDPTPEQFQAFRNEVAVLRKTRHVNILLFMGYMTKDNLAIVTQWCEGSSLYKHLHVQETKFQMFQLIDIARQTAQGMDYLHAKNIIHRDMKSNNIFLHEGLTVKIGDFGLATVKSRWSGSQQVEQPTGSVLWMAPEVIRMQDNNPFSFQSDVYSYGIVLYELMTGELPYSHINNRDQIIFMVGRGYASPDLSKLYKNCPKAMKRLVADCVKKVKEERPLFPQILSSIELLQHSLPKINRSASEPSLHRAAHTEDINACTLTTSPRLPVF
# T1 sequence (P29317 24-976): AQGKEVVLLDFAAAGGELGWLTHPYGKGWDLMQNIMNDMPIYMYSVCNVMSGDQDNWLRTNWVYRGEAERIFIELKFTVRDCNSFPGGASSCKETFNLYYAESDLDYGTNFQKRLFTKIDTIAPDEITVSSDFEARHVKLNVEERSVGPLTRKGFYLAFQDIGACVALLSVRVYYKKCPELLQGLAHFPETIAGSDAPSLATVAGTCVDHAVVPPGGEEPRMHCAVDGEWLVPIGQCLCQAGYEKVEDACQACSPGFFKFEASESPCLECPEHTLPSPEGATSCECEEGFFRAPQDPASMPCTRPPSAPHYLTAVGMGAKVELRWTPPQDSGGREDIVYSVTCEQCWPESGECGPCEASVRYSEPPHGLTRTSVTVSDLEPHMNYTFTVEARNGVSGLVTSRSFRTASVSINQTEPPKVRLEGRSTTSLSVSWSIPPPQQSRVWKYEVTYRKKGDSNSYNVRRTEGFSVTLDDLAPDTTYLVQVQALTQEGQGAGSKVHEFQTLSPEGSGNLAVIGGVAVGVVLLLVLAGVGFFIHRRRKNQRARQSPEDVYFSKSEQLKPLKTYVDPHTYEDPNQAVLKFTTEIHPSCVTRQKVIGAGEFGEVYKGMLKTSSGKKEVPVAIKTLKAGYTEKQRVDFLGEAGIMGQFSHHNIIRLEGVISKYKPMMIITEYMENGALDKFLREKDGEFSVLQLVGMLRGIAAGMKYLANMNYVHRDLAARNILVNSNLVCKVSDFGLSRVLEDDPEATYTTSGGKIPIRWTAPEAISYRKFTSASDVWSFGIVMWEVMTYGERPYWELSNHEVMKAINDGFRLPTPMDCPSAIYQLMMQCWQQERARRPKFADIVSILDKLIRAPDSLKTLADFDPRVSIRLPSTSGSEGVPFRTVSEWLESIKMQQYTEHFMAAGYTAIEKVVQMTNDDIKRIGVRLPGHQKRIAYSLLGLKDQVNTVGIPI
SMILES,remaining binding at 1 µM (panel of 468 kinases [1]),remaining binding at 1 µM (panel of 468 kinases [2]),remaining binding at 1 µM (panel of 468 kinases [3]),remaining binding at 1 µM (panel of 468 kinases [4]),remaining binding at 1 µM (panel of 468 kinases [5]),remaining binding at 1 µM (panel of 468 kinases [6]),remaining binding at 1 µM (panel of 468 kinases [7]),remaining binding at 1 µM (panel of 468 kinases [8])
"CNc1nc(Nc2ccc(S(=O)(=O)N3CCC(N4CCOCC4)CC3)cc2OC)nc2[nH]cc(Cl)c12 [Compound 12, 5-chloro-N2-(2-methoxy-4-((4-morpholinopiperidin-1-yl)sulfonyl)phenyl)-N4-methyl-7H-pyrrolo[2,3-d]pyrimidine-2,4-diamine]",100%,56%,93%,100%,100%,100%,100%,100%
"CNc1nc(Nc2ccc(C(=O)N3CCC(N4CCOCC4)CC3)c3c2OCO3)nc2[nH]cc(Cl)c12 [Compound 75, (7-((5-chloro-4-(methylamino)-7H-pyrrolo[2,3-d]pyrimidin-2-yl)amino)benzo[d][1,3]dioxol-4-yl)(4-morpholinopiperidin-1-yl)methanone]",96%,70%,100%,93%,100%,100%,100%,100%
"CNc1nc(Nc2ccc(P3(=O)CCN(C4CCOCC4)CC3)cc2OC)nc2[nH]cc(Cl)c12 [Compound 77, 4-(4-((5-chloro-4-(methylamino)-7H-pyrrolo[2,3-d]pyrimidin-2-yl)amino)-3-methoxyphenyl)-1-(tetrahydro-2H-pyran-4-yl)-1,4-azaphosphinane 4-oxide]",100%,36%,97%,94%,100%,81%,100%,100%
